Assay results published in US11919901B2 (Syndax Pharmaceuticals, Inc., priority 2021, dated 2024).

Target: Menin-MLL (Homo sapiens (Human), UniProt O00255)
Assay: Determination of binding constants (Ki) to Menin-MLL (HTRF)
Details: HTRF; 0.25 nM H-FL-Menin, 3.2 nM FITC-MLL-4-43, 24 hr incubation

Sequence of Menin-MLL (O00255 whole entry): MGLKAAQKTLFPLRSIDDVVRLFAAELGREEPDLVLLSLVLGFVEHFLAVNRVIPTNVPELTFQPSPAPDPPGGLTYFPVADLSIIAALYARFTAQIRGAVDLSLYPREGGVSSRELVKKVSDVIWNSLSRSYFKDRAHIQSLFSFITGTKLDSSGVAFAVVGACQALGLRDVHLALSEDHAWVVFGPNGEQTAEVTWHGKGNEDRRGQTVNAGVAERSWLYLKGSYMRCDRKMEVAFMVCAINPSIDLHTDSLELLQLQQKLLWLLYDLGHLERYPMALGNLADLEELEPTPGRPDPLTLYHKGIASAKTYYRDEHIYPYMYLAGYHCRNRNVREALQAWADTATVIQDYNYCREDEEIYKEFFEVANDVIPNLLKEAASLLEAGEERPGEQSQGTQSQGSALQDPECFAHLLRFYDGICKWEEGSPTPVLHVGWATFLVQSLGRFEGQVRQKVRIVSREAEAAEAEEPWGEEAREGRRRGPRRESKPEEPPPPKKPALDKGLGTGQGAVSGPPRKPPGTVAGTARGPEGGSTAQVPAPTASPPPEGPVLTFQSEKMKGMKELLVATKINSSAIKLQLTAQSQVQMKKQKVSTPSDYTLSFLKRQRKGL

| SMILES | EC50 [nM] |
| --- | --- |
| CCN(C(=O)c1cc(F)ccc1Oc1cncnc1N1CC2(CCN(C[C@@H]3CC[C@@H](NC(=O)Nc4ccccc4)CO3)CC2)C1)C(C)C [Compound 215, N-Ethyl-5-fluoro-N-isopropyl-2-((4-(7-(((2S,5R)-5-(3-phenylureido)tetrahydro-2H-pyran-2-yl)methyl)-2,7-diazaspiro[3.5]nonan-2-yl)pyrimidin-5-yl)oxy)benzamide] | 50 to 100 |

Same assay, conditions: HTRF; 0.25 nM H-FL-Menin, 3.2 nM FITC-MLL-4-43, 24 hr incubation; read-out: Menin-MLL Ki HTRF Assay: Ki

| SMILES | Ki [nM] |
| --- | --- |
| CC(C)N(C(=O)c1cc(F)ccc1Oc1cncnc1N1CC2(CCN(C[C@@H]3CC[C@@H](NS(=O)(=O)C(C)C)CO3)CC2)C1)[C@H]1CCOC1 [Compound 174, 5-Fluoro-N-isopropyl-2-((4-(7-(((2S,5R)-5-((1-methylethyl)sulfonamido)tetrahydro-2H-pyran-2-yl)methyl)-2,7-diazaspiro[3.5]nonan-2-yl)pyrimidin-5-yl)oxy)-N-((S)-tetrahydrofuran-3-yl)benzamide] | < 1 |
| CC(C)N(C(=O)c1cc(F)ccc1Oc1cncnc1N1CC2(CCN(C[C@@H]3CC[C@@H](NS(=O)(=O)N4CCCC4)CO3)CC2)C1)[C@H]1CCOC1 [Compound 178, 5-Fluoro-N-isopropyl-2-((4-(7-(((2S,5R)-5-(pyrrolidine-1-sulfonamido)tetrahydro-2H-pyran-2-yl)methyl)-2,7-diazaspiro[3.5]nonan-2-yl)pyrimidin-5-yl)oxy)-N-((S)-tetrahydrofuran-3-yl)benzamide] | < 1 |
| CCN(C)S(=O)(=O)N[C@@H]1CC[C@@H](CN2CCC3(CC2)CN(c2ncncc2Oc2ccc(F)cc2C(=O)N(C(C)C)[C@H]2CCOC2)C3)OC1 [Compound 179, 2-((4-(7-(((2S,5R)-5-((N-Ethyl-N-methylsulfamoyl)amino)tetrahydro-2H-pyran-2-yl)methyl)-2,7-diazaspiro[3.5]nonan-2-yl)pyrimidin-5-yl)oxy)-5-fluoro-N-isopropyl-N-((S)-tetrahydrofuran-3-yl)benzamide] | < 1 |
| CCNS(=O)(=O)N[C@@H]1CC[C@@H](CN2CCC3(CC2)CN(c2ncncc2Oc2ccc(F)cc2C(=O)N(C(C)C)[C@H]2CCOC2)C3)OC1 [Compound 180, 2-((4-(7-(((2S,5R)-5-((N-Ethylsulfamoyl)amino)tetrahydro-2H-pyran-2-yl)methyl)-2,7-diazaspiro[3.5]nonan-2-yl)pyrimidin-5-yl)oxy)-5-fluoro-N-isopropyl-N-((S)-tetrahydrofuran-3-yl)benzamide] | < 1 |
| CC(C)N(CCC#N)C(=O)c1cc(F)ccc1Oc1cncnc1N1CC2(CCN(C[C@@H]3CC[C@@H](NS(=O)(=O)N4CCC4)CO3)CC2)C1 [Compound 184, 2-((4-(7-(((2S,5R)-5-(Azetidine-1-sulfonamido)tetrahydro-2H-pyran-2-yl)methyl)-2,7-diazaspiro[3.5]nonan-2-yl)pyrimidin-5-yl)oxy)-N-(2-cyanoethyl)-5-fluoro-N-isopropylbenzamide] | < 1 |
| CCS(=O)(=O)N[C@@H]1CC[C@@H](CN2CCC3(CC2)CN(c2ncnnc2Oc2ccc(F)cc2C(=O)N(CC(F)F)C(C)C)C3)OC1 [Compound 185, N-(2,2-Difluoroethyl)-2-((5-(7-(((2S,5R)-5-(ethylsulfonamido)tetrahydro-2H-pyran-2-yl)methyl)-2,7-diazaspiro[3.5]nonan-2-yl)-1,2,4-triazin-6-yl)oxy)-5-fluoro-N-isopropylbenzamide] | < 1 |
| CC(C)N(CC(F)F)C(=O)c1cc(F)ccc1Oc1nncnc1N1CC2(CCN(C[C@@H]3CC[C@@H](NS(=O)(=O)C4CC4)CO3)CC2)C1 [Compound 186, 2-((5-(7-(((2S,5R)-5-(Cyclopropanesulfonamido)tetrahydro-2H-pyran-2-yl)methyl)-2,7-diazaspiro[3.5]nonan-2-yl)-1,2,4-triazin-6-yl)oxy)-N-(2,2-difluoroethyl)-5-fluoro-N-isopropylbenzamide] | < 1 |
| CC(C)N(CC(F)F)C(=O)c1cc(F)ccc1Oc1nncnc1N1CC2(CCN(C[C@@H]3CC[C@@H](NS(=O)(=O)c4cnn(C)c4)CO3)CC2)C1 [Compound 187, N-(2,2-Difluoroethyl)-5-fluoro-N-isopropyl-2-((5-(7-(((2S,5R)-5-((1-methyl-1H-pyrazole)-4-sulfonamido)tetrahydro-2H-pyran-2-yl)methyl)-2,7-diazaspiro[3.5]nonan-2-yl)-1,2,4-triazin-6-yl)oxy)benzamide] | < 1 |
| CCNS(=O)(=O)N[C@@H]1CC[C@@H](CN2CCC3(CC2)CN(c2ncnnc2Oc2ccc(F)cc2C(=O)N(CC(F)F)C(C)C)C3)OC1 [Compound 188, N-(2,2-Difluoroethyl)-2-((5-(7-(((2S,5R)-5-((N-ethylsulfamoyl)amino)tetrahydro-2H-pyran-2-yl)methyl)-2,7-diazaspiro[3.5]nonan-2-yl)-1,2,4-triazin-6-yl)oxy)-5-fluoro-N-isopropylbenzamide] | < 1 |
| CCS(=O)(=O)N[C@@H]1CC[C@@H](CN2CCC3(CC2)CN(c2ncnnc2Oc2ccc(F)cc2C(=O)N(CC(F)(F)F)C(C)C)C3)OC1 [Compound 190, 2-((5-(7-(((2S,5R)-5-(Ethylsulfonamido)tetrahydro-2H-pyran-2-yl)methyl)-2,7-diazaspiro[3.5]nonan-2-yl)-1,2,4-triazin-6-yl)oxy)-5-fluoro-N-isopropyl-N-(2,2,2-trifluoroethyl)benzamide] | < 1 |
| CC(C)N(CC(F)(F)F)C(=O)c1cc(F)ccc1Oc1nncnc1N1CC2(CCN(C[C@@H]3CC[C@@H](NS(=O)(=O)C4CC4)CO3)CC2)C1 [Compound 191, 2-((5-(7-(((2S,5R)-5-(Cyclopropanesulfonamido)tetrahydro-2H-pyran-2-yl)methyl)-2,7-diazaspiro[3.5]nonan-2-yl)-1,2,4-triazin-6-yl)oxy)-5-fluoro-N-isopropyl-N-(2,2,2-trifluoroethyl)benzamide] | < 1 |
| CC(C)N(CC(F)(F)F)C(=O)c1cc(F)ccc1Oc1nncnc1N1CC2(CCN(C[C@@H]3CC[C@@H](NS(=O)(=O)c4cnn(C)c4)CO3)CC2)C1 [Compound 192, 5-Fluoro-N-isopropyl-2-((5-(7-(((2R,5S)-5-((1-methyl-1H-pyrazole)-4-sulfonamido)tetrahydro-2H-pyran-2-yl)methyl)-2,7-diazaspiro[3.5]nonan-2-yl)-1,2,4-triazin-6-yl)oxy)-N-(2,2,2-trifluoroethyl)benzamide] | < 1 |
| CCS(=O)(=O)N[C@@H]1CC[C@@H](CN2CCC3(CC2)CN(c2ncnnc2Oc2ccc(F)cc2C(=O)N(C(C)C)C(C)C)C3)OC1 [Compound 195, 2-((5-(7-(((2S,5R)-5-(Ethylsulfonamido)tetrahydro-2H-pyran-2-yl)methyl)-2,7-diazaspiro[3.5]nonan-2-yl)-1,2,4-triazin-6-yl)oxy)-5-fluoro-N,N-diisopropylbenzamide] | < 1 |
| CC(C)N(C(=O)c1cc(F)ccc1Oc1nncnc1N1CC2(CCN(C[C@@H]3CC[C@@H](NS(=O)(=O)c4cnn(C)c4)CO3)CC2)C1)C(C)C [Compound 197, 5-Fluoro-N,N-diisopropyl-2-((5-(7-(((2S,5R)-5-((1-methyl-1H-pyrazole)-4-sulfonamido)tetrahydro-2H-pyran-2-yl)methyl)-2,7-diazaspiro[3.5]nonan-2-yl)-1,2,4-triazin-6-yl)oxy)benzamide] | < 1 |
| CC(C)N(C(=O)c1cc(F)ccc1Oc1cncnc1N1CC2(CCN(C[C@@H]3CC[C@@H](NS(=O)(=O)N4CCC[C@H]4C)CO3)CC2)C1)[C@@H]1CCOC1 [Compound 204, 5-Fluoro-N-isopropyl-2-((4-(7-(((2S,5R)-5-(((R)-2-methylpyrrolidine)-1-sulfonamido)tetrahydro-2H-pyran-2-yl)methyl)-2,7-diazaspiro[3.5]nonan-2-yl)pyrimidin-5-yl)oxy)-N-((R)-tetrahydrofuran-3-yl)benzamide] | < 1 |
| CC(C)N(C(=O)c1cc(F)ccc1Oc1cncnc1N1CC2(CCN(C[C@@H]3CC[C@@H](NS(=O)(=O)N4CCC[C@@H]4C)CO3)CC2)C1)[C@@H]1CCOC1 [Compound 205, 5-Fluoro-N-isopropyl-2-((4-(7-(((2S,5R)-5-(((S)-2-methylpyrrolidine)-1-sulfonamido)tetrahydro-2H-pyran-2-yl)methyl)-2,7-diazaspiro[3.5]nonan-2-yl)pyrimidin-5-yl)oxy)-N-((R)-tetrahydrofuran-3-yl)benzamide] | < 1 |
| CC(C)N(C(=O)c1cc(F)ccc1Oc1cncnc1N1CC2(CCN(C[C@@H]3CC[C@@H](NS(=O)(=O)N4CCC[C@@H]4C)CO3)CC2)C1)C1CCOC1 (stereo partly drawn) [Compound 206, 5-Fluoro-N-isopropyl-2-((4-(7-(((2S,5R)-5-(((S)-2-methylpyrrolidine)-1-sulfonamido)tetrahydro-2H-pyran-2-yl)methyl)-2,7-diazaspiro[3.5]nonan-2-yl)pyrimidin-5-yl)oxy)-N-((S)-tetrahydrofuran-3-yl)benzamide] | < 1 |
| CC(C)N(C(=O)c1cc(F)ccc1Oc1cncnc1N1CC2(CCN(C[C@@H]3CC[C@@H](NS(=O)(=O)N4CCC[C@H]4C)CO3)CC2)C1)C1CCOC1 (stereo partly drawn) [Compound 207, 5-Fluoro-N-isopropyl-2-((4-(7-(((2S,5R)-5-(((R)-2-methylpyrrolidine)-1-sulfonamido)tetrahydro-2H-pyran-2-yl)methyl)-2,7-diazaspiro[3.5]nonan-2-yl)pyrimidin-5-yl)oxy)-N-((S)-tetrahydrofuran-3-yl)benzamide] | < 1 |
| COC[C@H]1CCCN1S(=O)(=O)N[C@@H]1CC[C@@H](CN2CCC3(CC2)CN(c2ncncc2Oc2ccc(F)cc2C(=O)N(C(C)C)C(C)C)C3)OC1 [Compound 212, 5-Fluoro-N,N-diisopropyl-2-((4-(7-(((2S,5R)-5-(((R)-2-(methoxymethyl)pyrrolidine)-1-sulfonamido)tetrahydro-2H-pyran-2-yl)methyl)-2,7-diazaspiro[3.5]nonan-2-yl)pyrimidin-5-yl)oxy)benzamide] | < 1 |
| COC[C@@H]1CCCN1S(=O)(=O)N[C@@H]1CC[C@@H](CN2CCC3(CC2)CN(c2ncncc2Oc2ccc(F)cc2C(=O)N(C(C)C)C(C)C)C3)OC1 [Compound 213, 5-Fluoro-N,N-diisopropyl-2-((4-(7-(((2S,5R)-5-(((S)-2-(methoxymethyl)pyrrolidine)-1-sulfonamido)tetrahydro-2H-pyran-2-yl)methyl)-2,7-diazaspiro[3.5]nonan-2-yl)pyrimidin-5-yl)oxy)benzamide] | < 1 |
